Each structure is given as a SMILES string.

The target in assay [1] is Dual specificity protein kinase CLK1 (Homo sapiens, UniProt P49759). Kind of assay: Selectivity interaction (Kinase panel (DSF assay)) EUB0001489b CLK1. For orientation: DSF heats the sample and reads unfolding from a dye or from intrinsic fluorescence.
In assay [2] the target is Calcium/calmodulin-dependent protein kinase type 1 (Homo sapiens) (UniProt Q14012). Kind of assay: Selectivity interaction (KinomeScan (DiscoverX)) EUB0000595a CAMK1. To be noted: at 10 µM.
Assay [3] has as its target Serine/threonine-protein kinase Nek4 (Homo sapiens) (UniProt P51957). Kind of assay: Selectivity interaction (KinomeScan (DiscoverX)) EUB0001619a NEK4. The settings on record: at 1 µM.
The target in assay [4] is T1, Serine/threonine-protein kinase ULK3 (Homo sapiens) (UniProt Q6PHR2).
T1 sequence (whole entry): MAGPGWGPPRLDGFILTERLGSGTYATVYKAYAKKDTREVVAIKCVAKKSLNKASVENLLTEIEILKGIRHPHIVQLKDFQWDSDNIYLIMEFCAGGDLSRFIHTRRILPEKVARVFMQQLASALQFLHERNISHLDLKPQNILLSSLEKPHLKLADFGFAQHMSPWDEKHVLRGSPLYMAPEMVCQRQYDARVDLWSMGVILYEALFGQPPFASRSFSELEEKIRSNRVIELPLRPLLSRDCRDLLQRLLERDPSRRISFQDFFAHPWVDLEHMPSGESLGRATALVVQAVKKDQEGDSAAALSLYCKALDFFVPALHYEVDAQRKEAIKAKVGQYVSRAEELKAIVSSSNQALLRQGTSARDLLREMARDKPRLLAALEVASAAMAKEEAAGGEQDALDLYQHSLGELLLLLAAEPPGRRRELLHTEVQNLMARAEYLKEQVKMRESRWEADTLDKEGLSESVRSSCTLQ
Kind of assay: Selectivity interaction (KinomeScan (DiscoverX)) EUB0000695a ULK3. To be noted: at 100 nM.

The target in assay [5] is T2, Dual specificity mitogen-activated protein kinase kinase 5 (Homo sapiens) (UniProt Q13163).
T2 sequence (whole entry): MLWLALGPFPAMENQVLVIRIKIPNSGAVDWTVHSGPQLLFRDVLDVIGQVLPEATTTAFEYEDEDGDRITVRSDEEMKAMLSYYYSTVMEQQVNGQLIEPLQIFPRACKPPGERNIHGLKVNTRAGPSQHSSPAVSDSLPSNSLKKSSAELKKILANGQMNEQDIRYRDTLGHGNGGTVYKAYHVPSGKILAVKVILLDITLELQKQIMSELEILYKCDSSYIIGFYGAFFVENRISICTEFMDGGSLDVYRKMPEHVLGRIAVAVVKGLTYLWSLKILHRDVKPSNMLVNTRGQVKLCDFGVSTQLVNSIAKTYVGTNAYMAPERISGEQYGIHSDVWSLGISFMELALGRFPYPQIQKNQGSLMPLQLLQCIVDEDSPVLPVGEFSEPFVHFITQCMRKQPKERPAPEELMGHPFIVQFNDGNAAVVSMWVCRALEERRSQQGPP
Kind of assay: Selectivity interaction (KinomeScan (DiscoverX)) EUB0000666a MAP2K5. The settings on record: at 10 µM.

The target in assay [6] is T3, Interleukin-1 receptor-associated kinase 3 (Homo sapiens) (UniProt Q9Y616).
T3 sequence (whole entry): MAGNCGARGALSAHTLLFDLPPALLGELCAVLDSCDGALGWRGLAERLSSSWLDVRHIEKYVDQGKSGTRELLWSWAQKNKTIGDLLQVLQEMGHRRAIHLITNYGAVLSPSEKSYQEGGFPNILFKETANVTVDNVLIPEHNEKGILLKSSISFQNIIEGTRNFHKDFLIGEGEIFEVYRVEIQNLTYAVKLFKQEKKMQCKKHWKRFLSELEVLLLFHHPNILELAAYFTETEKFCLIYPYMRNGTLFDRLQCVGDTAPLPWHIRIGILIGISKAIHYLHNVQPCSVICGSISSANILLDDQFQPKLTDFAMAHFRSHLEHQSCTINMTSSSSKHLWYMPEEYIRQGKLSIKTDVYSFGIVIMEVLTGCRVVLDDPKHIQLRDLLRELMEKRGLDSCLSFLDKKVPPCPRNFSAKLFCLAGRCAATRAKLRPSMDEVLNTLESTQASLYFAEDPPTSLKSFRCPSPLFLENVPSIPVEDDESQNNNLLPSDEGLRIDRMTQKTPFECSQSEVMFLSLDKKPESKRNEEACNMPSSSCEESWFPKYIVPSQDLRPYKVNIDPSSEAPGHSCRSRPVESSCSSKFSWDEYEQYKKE
Kind of assay: Selectivity interaction (KinomeScan (DiscoverX)) EUB0001550a IRAK3. To be noted: at 1 µM.

Assay [7] concerns the target Histone-lysine N-methyltransferase SETDB1 (Homo sapiens) (UniProt Q15047). To be noted: at 1 µM.
The target in assay [8] is Casein kinase II subunit alpha (Homo sapiens, UniProt P68400). Kind of assay: Selectivity interaction (KinomeScan (DiscoverX)) EUB0001049a CSNK2A1. The settings on record: at 1 µM.
In assay [9] the test system is Epidermal growth factor receptor (Homo sapiens), P00533 [UNDEFINED MUTATION]. Kind of assay: Selectivity interaction (KinomeScan (DiscoverX)) EUB0001049a EGFR. The settings on record: at 1 µM.
Assay [10] concerns the target Tyrosine-protein kinase HCK (Homo sapiens) (UniProt P08631). Kind of assay: Selectivity interaction (KinomeScan (DiscoverX)) EUB0000618a HCK. To be noted: at 10 µM.
Assay [11] addresses Serine/threonine-protein kinase SIK3 (Homo sapiens) (UniProt Q9Y2K2). Kind of assay: Selectivity interaction (KinomeScan (DiscoverX)) EUB0000092b SIK3. The settings on record: at 10 µM.
The target in assay [12] is Serine/threonine-protein kinase PLK1 (Homo sapiens, UniProt P53350). Kind of assay: Selectivity interaction (KinomeScan (DiscoverX)) EUB0000092b PLK1. To be noted: at 10 µM.
Assay [13] addresses Histone-lysine N-methyltransferase, H3 lysine-79 specific (Homo sapiens, UniProt Q8TEK3). Kind of assay: Selectivity interaction (Methyltransferase screen (radiometric assays, panel of 8 PRMTs, 21 protein lysine methyltransferases, 3 DNA methyltransferases, and one RNA methyltransferase)) EUB0000272b DOT1L.

Histone-lysine N-methyltransferase, H3 lysine-79 specific, sequence (Q8TEK3 whole entry, looked up): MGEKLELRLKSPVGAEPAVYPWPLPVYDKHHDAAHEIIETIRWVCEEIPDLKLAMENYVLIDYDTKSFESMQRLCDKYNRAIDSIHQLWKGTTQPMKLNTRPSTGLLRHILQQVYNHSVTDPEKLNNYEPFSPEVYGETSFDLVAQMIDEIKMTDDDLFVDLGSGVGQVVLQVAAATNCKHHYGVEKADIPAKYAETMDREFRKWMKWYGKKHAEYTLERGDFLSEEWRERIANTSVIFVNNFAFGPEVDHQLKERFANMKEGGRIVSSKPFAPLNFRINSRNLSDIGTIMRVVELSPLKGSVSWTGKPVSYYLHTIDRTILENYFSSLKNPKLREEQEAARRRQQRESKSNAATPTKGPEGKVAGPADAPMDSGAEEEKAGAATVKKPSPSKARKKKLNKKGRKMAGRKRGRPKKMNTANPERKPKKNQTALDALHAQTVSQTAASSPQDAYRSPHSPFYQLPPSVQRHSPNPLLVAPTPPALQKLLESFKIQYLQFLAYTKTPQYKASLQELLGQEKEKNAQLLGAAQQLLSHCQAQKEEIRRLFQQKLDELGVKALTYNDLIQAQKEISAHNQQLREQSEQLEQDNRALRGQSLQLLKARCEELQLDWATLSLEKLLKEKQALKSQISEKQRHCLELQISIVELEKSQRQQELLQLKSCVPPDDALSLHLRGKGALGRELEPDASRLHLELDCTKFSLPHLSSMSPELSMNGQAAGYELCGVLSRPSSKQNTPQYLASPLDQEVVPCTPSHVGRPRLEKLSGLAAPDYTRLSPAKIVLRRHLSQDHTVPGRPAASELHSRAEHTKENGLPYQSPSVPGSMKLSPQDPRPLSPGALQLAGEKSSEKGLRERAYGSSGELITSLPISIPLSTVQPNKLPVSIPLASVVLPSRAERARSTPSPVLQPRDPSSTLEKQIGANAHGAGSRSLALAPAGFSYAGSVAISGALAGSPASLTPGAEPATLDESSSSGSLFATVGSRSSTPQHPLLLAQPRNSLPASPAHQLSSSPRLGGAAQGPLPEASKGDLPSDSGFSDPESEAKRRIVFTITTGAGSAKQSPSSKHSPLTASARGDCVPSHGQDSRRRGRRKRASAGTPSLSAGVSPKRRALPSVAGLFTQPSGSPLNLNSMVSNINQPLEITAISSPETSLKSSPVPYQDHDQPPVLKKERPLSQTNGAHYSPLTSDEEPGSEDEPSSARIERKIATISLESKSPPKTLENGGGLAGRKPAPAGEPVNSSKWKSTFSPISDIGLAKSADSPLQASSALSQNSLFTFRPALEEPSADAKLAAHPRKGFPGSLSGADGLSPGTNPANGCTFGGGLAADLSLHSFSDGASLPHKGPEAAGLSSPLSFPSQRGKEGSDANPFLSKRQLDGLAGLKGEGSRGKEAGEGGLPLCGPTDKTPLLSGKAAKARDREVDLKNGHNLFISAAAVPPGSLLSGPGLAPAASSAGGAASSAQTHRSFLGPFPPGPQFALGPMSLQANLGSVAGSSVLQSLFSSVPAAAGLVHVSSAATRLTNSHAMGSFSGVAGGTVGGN
Serine/threonine-protein kinase Nek4 (Homo sapiens), sequence (P51957 whole entry, looked up): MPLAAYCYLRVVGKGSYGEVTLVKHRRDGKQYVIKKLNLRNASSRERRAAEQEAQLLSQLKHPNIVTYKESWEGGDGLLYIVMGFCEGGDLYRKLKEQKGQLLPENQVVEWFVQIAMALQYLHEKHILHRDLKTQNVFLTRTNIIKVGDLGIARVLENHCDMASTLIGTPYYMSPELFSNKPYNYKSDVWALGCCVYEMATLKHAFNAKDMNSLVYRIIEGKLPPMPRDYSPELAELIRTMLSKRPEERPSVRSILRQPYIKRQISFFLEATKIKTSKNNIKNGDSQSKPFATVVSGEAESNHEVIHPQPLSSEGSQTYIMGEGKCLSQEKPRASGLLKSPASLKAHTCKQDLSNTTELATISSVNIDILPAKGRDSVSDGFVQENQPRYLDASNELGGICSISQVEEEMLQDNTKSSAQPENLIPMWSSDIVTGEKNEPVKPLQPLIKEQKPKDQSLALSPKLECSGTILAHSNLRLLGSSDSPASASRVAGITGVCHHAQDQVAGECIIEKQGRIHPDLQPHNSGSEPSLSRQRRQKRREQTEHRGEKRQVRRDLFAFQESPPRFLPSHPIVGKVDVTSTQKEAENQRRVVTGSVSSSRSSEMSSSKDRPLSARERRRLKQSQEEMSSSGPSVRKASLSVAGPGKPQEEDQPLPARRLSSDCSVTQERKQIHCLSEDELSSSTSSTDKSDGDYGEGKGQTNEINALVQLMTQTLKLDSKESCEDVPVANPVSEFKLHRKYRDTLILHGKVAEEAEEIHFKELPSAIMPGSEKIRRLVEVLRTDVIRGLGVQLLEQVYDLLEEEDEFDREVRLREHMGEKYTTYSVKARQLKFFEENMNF
Tyrosine-protein kinase HCK (Homo sapiens), sequence (P08631 2-526 limits assumed): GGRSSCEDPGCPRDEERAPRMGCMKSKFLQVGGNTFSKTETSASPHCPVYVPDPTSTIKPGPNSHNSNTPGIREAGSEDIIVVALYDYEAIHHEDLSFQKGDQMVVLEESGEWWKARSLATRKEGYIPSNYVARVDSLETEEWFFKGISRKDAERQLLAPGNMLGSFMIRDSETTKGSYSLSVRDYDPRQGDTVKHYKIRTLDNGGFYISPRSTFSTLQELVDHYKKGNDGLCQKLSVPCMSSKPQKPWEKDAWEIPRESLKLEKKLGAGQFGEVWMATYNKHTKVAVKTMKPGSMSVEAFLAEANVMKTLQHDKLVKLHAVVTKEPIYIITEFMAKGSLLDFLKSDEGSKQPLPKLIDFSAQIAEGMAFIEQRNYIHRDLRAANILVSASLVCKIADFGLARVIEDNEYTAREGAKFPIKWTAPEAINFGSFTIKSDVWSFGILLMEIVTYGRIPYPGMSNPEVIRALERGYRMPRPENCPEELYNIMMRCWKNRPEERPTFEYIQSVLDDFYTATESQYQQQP
Serine/threonine-protein kinase SIK3 (Homo sapiens), sequence (Q9Y2K2 whole entry, looked up): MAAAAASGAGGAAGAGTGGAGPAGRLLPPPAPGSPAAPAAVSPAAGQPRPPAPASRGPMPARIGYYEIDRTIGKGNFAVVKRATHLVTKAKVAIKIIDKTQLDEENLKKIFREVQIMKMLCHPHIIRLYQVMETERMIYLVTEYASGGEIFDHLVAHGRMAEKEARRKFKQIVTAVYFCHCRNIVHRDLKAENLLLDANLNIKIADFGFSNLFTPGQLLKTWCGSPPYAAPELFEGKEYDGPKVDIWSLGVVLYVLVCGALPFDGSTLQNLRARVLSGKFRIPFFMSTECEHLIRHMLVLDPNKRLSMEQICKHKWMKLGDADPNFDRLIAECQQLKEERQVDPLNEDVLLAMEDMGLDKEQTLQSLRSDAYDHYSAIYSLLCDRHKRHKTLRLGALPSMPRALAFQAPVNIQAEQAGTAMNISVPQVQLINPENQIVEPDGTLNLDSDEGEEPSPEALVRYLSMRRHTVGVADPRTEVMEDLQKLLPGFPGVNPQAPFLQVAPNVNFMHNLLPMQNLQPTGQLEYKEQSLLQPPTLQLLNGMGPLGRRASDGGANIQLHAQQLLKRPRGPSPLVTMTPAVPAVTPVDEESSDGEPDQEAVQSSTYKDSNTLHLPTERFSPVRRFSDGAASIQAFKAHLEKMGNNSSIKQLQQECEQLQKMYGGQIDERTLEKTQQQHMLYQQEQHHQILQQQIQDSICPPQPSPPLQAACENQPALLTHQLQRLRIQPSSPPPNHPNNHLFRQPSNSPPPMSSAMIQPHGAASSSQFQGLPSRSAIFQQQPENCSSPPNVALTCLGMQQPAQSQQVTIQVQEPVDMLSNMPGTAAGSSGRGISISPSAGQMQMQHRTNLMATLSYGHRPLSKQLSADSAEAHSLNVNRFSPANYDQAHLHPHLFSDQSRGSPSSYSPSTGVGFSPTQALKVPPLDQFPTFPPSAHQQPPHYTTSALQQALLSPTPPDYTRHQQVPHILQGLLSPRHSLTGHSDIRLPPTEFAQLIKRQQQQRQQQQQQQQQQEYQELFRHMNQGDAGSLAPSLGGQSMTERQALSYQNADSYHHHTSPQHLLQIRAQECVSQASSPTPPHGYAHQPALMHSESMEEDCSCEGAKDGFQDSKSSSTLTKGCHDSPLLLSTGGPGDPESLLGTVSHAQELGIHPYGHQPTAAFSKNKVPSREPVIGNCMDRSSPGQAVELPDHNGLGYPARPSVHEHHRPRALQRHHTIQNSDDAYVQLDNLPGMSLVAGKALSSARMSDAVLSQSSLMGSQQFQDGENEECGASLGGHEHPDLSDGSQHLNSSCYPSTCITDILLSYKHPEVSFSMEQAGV
Calcium/calmodulin-dependent protein kinase type 1 (Homo sapiens), sequence (Q14012 whole entry, looked up): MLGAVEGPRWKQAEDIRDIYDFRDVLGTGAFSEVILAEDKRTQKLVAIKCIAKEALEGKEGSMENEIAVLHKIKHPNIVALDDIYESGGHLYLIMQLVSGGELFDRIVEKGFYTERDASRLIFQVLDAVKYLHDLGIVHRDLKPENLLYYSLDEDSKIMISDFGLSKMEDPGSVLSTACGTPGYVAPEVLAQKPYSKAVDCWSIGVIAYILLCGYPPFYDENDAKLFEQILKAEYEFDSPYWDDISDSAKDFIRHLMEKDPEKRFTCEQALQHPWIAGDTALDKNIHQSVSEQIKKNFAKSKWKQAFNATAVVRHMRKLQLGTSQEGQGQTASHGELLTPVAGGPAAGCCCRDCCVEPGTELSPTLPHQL
Dual specificity protein kinase CLK1, sequence (P49759 whole entry, looked up): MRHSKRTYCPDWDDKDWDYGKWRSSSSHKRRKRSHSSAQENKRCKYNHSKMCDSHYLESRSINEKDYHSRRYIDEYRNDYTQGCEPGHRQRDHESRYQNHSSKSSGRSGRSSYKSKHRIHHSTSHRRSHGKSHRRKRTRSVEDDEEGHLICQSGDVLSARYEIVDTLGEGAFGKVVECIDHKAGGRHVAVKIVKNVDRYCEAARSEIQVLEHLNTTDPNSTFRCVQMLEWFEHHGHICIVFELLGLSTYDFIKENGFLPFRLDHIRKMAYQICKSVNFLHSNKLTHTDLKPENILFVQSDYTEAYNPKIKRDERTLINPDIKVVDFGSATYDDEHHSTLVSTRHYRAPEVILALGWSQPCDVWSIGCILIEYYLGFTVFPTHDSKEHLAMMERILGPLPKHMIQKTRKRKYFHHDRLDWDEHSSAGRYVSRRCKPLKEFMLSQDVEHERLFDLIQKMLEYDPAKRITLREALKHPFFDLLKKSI

In [1], `CN1CCN(C(=O)c2ccc3cc2OCCOCCNc2ccn4ncc-3c4n2)CC1` yielded a dTM of 2.9 K.
Consider `COCC(=O)NC/C=C/c1ccc2ncnc(Nc3ccc(Oc4ccc(C)nc4)c(C)c3)c2c1` [CP-724714], for which the % of control in [2] was 72%.
In assay [3], `N#Cc1cccc(-c2c[nH]c3ncnc(N4CCOCC4)c23)c1` yielded a % of control of 100%.
For `Cc1cc(F)c(C(=O)Nc2cccc(-c3nncn3C(C)C)n2)cc1-n1cnc(C2CC2)c1`, the % of control in assay [4] turned out to be 80%.
On to `O=C(NOC[C@H](O)CO)c1ccc(F)c(F)c1Nc1ccc(I)cc1F`, for which, in assay [5], the % of control came to 86%.
`CN(C)CC#Cc1ccc2[nH]c3c(c2c1)-c1nc(N)ncc1CCC3`: in [6], the % of control is 9.2%.
In assay [7], `CNCCN1CCC(c2cc(CN(C)C(=O)c3cccc(Oc4ccccc4)c3)ccn2)CC1` yielded a % activity greater than 90%.
Take `COc1cc(Nc2nc(C)cc(-c3cnn4nc(OC)ccc34)n2)cc(C(F)(F)F)c1`: the % of control in assay [8] was determined as 83%; in assay [9], 53%.
`O[C@H]1CC[C@H](Nc2ncc3nc(Nc4c(F)cc(F)cc4F)n([C@H]4CCOC4)c3n2)CC1` registered a % of control in assay [10] of 100%.
With `CCC(=O)N1CCN(c2ccc(-n3c(=O)ccc4cnc5ccc(-c6cnc7ccccc7c6)cc5c43)cc2C(F)(F)F)CC1`, the figures for the % of control in assay [11] and in assay [12] were 89% and 85%, respectively.
For `Cc1cc(C)cc([C@H]2c3cc(C)ccc3NC(=O)CN2C(=O)c2ccc(Br)s2)c1`, the % of activity in assay [13] (at 1 µM) was determined as 100%; in assay [13] (at 10 µM), 94.3%.
